Values after ≈ are worked out from the molar mass of the structure shown. Values joined by “and” are separate entries in the source; they are usually repeats but may differ in a detail not shown here. Identical values can stand only once.
Experiments:
Assay in all cases: ≥ marks a high value that may be exact or a test limit, other limits are often not marked, values filed in µg/mL are converted to µM
[1] = tested on: Acinetobacter baumannii
[2] = tested on: Escherichia coli ATCC 25922
[3] = tested on: Klebsiella pneumoniae ATCC 700603
[4] = tested on: Pseudomonas aeruginosa ATCC 9027
[5] = tested on: Staphylococcus aureus ATCC 25923
[6] = tested on: Escherichia coli DH5alpha
[7] = tested on: Klebsiella pneumoniae ATCC 13883
[8] = tested on: Pseudomonas aeruginosa ATCC 27853
[9] = tested on: Salmonella enterica subsp. enterica serovar Typhimurium ATCC 14028
[10] = tested on: Acinetobacter baumannii ATCC 19606
[11] = tested on: Bacillus subtilis 168
[12] = tested on: Bacillus subtilis ATCC 23857
[13] = tested on: Escherichia coli B
[14] = tested on: Pseudomonas aeruginosa
[15] = tested on: Staphylococcus aureus
[16] = tested on: Enterococcus faecalis ATCC 29212
[17] = tested on: Staphylococcus epidermidis ATCC 12228
[18] = tested on: Candida albicans ATCC 10231
[19] = tested on: Staphylococcus aureus NCTC 8325

SMILES | MIC [2] [µM] | MIC [5] [µM] | MIC [11] [µM] | MIC [13] [µM] | MIC [14] [µM] | MIC [15] [µM] | other results
CC[C@H](C)[C@H](NC(=O)[C@H](C)N)C(=O)N[C@@H](CC(C)C)C(=O)N[C@@H](CCCN=C(N)N)C(=O)N[C@@H](CCCCN)C(=O)N[C@@H](C)C(=O)N[C@H](C(=O)N[C@@H](CCCN=C(N)N)C(=O)N[C@@H](CCCN=C(N)N)C(=O)N[C@@H](CC(C)C)C(=O)N[C@H](C(=O)N[C@@H](CCC(N)=O)C(=O)N[C@@H](CC(C)C)C(=O)N[C@H](C(=O)N[C@H](C(=O)N[C@@H](CO)C(=O)NCC(=O)O)C(C)C)[C@@H](C)CC)C(C)C)[C@@H](C)O [AILRKATRRLVQLIVSG] | > 25 | > 25 |  |  |  |  | MIC [1]: 25 µM (≈ 47.4 µg/mL); MIC [3]: > 25 µM; MIC [4]: > 25 µM
CC[C@H](C)[C@H](NC(=O)[C@H](Cc1cnc[nH]1)NC(=O)[C@H](C)NC(=O)[C@H](CCSC)NC(=O)[C@H](CC(N)=O)NC(=O)[C@H](CCCCN)NC(=O)[C@H](CCCCN)NC(=O)[C@@H](NC(=O)[C@@H](NC(=O)[C@H](CCCCN)NC(=O)[C@H](C)NC(=O)[C@H](Cc1ccccc1)NC(=O)[C@H](CC(C)C)NC(=O)[C@H](CCCCN)NC(=O)[C@@H]1CCCN1C(=O)[C@H](CC(C)C)NC(=O)[C@H](Cc1ccccc1)NC(=O)[C@@H](N)CS)[C@@H](C)CC)[C@@H](C)O)C(=O)N[C@@H](CCCN=C(N)N)C(=O)O [CFLPKLFAKITKKNMAHIR] |  |  |  |  |  |  | MIC [6]: 10 µM (≈ 22.6 µg/mL); MIC [7]: 7 µM and 5 µM; MIC [8]: 10 µM (≈ 22.6 µg/mL); MIC [9]: 15 µM (≈ 33.9 µg/mL)
CSCC[C@H](NC(=O)[C@H](Cc1c[nH]c2ccccc12)NC(=O)[C@H](CCCCN)NC(=O)CN)C(=O)N[C@@H](CO)C(=O)N[C@@H](CC(C)C)C(=O)N[C@@H](CC(C)C)C(=O)N[C@@H](CCCCN)C(=O)N[C@@H](Cc1cnc[nH]1)C(=O)N[C@@H](Cc1c[nH]c2ccccc12)C(=O)N[C@@H](CC(C)C)C(=O)N[C@@H](CCCCN)C(N)=O [GKWMSLLKHWLK] |  |  | 1.3 (≈ 1.98 µg/mL) | 3.5 (≈ 5.34 µg/mL) | 25 (≈ 38.1 µg/mL) | 13.8 (≈ 21.1 µg/mL) | 
CC(C)C[C@H](NC(=O)[C@H](Cc1ccc(O)cc1)NC(=O)[C@H](CCCCN)NC(=O)[C@H](CC(C)C)NC(=O)[C@H](CC(C)C)NC(=O)[C@H](CCCCN)NC(=O)[C@H](CCCCN)NC(=O)[C@H](Cc1ccccc1)NC(=O)[C@H](CC(C)C)NC(=O)[C@H](CCCN=C(N)N)NC(=O)[C@@H](N)CCCCN)C(=O)N[C@@H](CCCN=C(N)N)C(=O)N[C@@H](CCCCN)C(=O)N[C@@H](Cc1ccccc1)C(=O)O [KRLFKKLLKYLRKF] | 0.531 (≈ 1 µg/mL) | 0.531 (≈ 1 µg/mL) |  |  | 2.13 (≈ 4 µg/mL) |  | MIC [10]: 1.06 µM (≈ 2 µg/mL); MIC [1]: 1.06 µM (≈ 2 µg/mL); MIC [18]: 2.13 µM (≈ 4 µg/mL); MIC [8]: 1.06 µM (≈ 2 µg/mL)
CC[C@H](C)[C@H](NC(=O)CNC(=O)[C@H](CCCN=C(N)N)NC(=O)[C@H](Cc1ccc(O)cc1)NC(=O)[C@@H](NC(=O)[C@@H](NC(=O)[C@H](CCCN=C(N)N)NC(=O)[C@H](Cc1ccccc1)NC(=O)[C@@H](NC(=O)[C@H](Cc1c[nH]c2ccccc12)NC(=O)[C@H](Cc1c[nH]c2ccccc12)NC(=O)[C@@H](N)CCCCN)C(C)C)C(C)C)C(C)C)C(=O)N[C@H](C(=O)N[C@@H](Cc1ccc(O)cc1)C(=O)N[C@@H](CCCN=C(N)N)C(=O)N[C@@H](CCCN=C(N)N)C(=O)N[C@H](C(=O)N[C@@H](CCCN=C(N)N)C(=O)N[C@@H](Cc1c[nH]c2ccccc12)C(=O)N[C@@H](CCCCN)C(=O)O)C(C)C)C(C)C [KWWVFRVVYRGIVYRRVRWK] |  |  |  |  |  |  | MIC [6]: 12.5 µM (≈ 34.4 µg/mL)
CC[C@H](C)[C@H](NC(=O)[C@H](CCCCN)NC(=O)[C@H](CCCCN)NC(=O)[C@H](C)NC(=O)[C@@H](NC(=O)[C@H](C)NC(=O)[C@H](CC(C)C)NC(=O)[C@H](C)NC(=O)[C@H](C)NC(=O)[C@H](CCCCN)NC(=O)[C@H](CC(C)C)NC(=O)[C@H](CC(N)=O)NC(=O)[C@@H](N)CC(C)C)C(C)C)C(=O)N[C@@H](CC(C)C)C(N)=O [LNLKAALAVAKKIL] | 8 (≈ 11.7 µg/mL) | 32 (≈ 46.9 µg/mL) |  |  |  |  | MIC [12]: 8 µM (≈ 11.7 µg/mL); MIC [3]: 16 µM (≈ 23.4 µg/mL); MIC [4]: 32 µM (≈ 46.9 µg/mL)
CC[C@H](C)[C@H](NC(=O)[C@@H](NC(=O)[C@@H]1CCCN1C(=O)[C@H](CC(C)C)NC(=O)[C@@H](NC(=O)[C@@H](N)CO)[C@@H](C)CC)[C@@H](C)O)C(=O)N[C@H](C(=O)N[C@@H](CO)C(=O)N[C@@H](Cc1ccccc1)C(=O)N[C@@H](CC(C)C)C(=O)N[C@@H](CO)C(=O)N[C@@H](CCCCN)C(=O)N[C@@H](Cc1ccccc1)C(=O)N[C@@H](CC(C)C)C(N)=O)C(C)C [SILPTIVSFLSKFL] |  |  |  |  |  |  | MIC [19]: 24 µM (≈ 37.5 µg/mL)
CC[C@H](C)[C@H](NC(=O)[C@H](Cc1cnc[nH]1)NC(=O)[C@H](CCCCN)NC(=O)[C@H](CC(C)C)NC(=O)[C@H](CC(C)C)NC(=O)[C@H](CO)NC(=O)[C@H](CCSC)NC(=O)[C@H](Cc1c[nH]c2ccccc12)NC(=O)[C@H](CCCCN)NC(=O)[C@@H](N)CO)C(=O)N[C@@H](CC(C)C)C(=O)N[C@@H](CCCCN)C(N)=O [SKWMSLLKHILK] |  |  | 1.1 (≈ 1.63 µg/mL) | 2.3 (≈ 3.41 µg/mL) | 50 (≈ 74.1 µg/mL) | 9.2 (≈ 13.6 µg/mL) | 

The next lines start with results.

MIC [2] [µM] | MIC [5] [µM] | MIC [11] [µM] | MIC [13] [µM] | MIC [14] [µM] | MIC [15] [µM] | SMILES | other results
≥ 32 | ≥ 128 | 30 (≈ 34.6 µg/mL) |  |  |  | CC[C@H](C)[C@H](NC(=O)[C@H](CCCCN)NC(=O)[C@H](CCCCN)NC(=O)[C@@H](NC(=O)[C@@H](NC(=O)[C@H](CCCCN)NC(=O)[C@H](CCCCN)NC(=O)[C@@H](NC(=O)[C@@H](NC(=O)CN)[C@@H](C)CC)[C@@H](C)CC)[C@@H](C)CC)[C@@H](C)CC)C(N)=O [GIIKKIIKKI] | MIC [10]: ≥ 64 µM; MIC [12]: 16 µM (≈ 18.4 µg/mL); MIC [6]: ≥ 125 µM; MIC [3]: ≥ 128 µM; MIC [8]: ≥ 64 µM
 |  | 9.3 (≈ 12.4 µg/mL) | ≥ 40 | > 100 | > 100 | CC[C@H](C)[C@H](NC(=O)[C@H](Cc1cnc[nH]1)NC(=O)[C@H](CCCCN)NC(=O)[C@H](CC(C)C)NC(=O)[C@H](CC(C)C)NC(=O)[C@H](CO)NC(=O)[C@H](CCSC)NC(=O)[C@H](C)NC(=O)[C@H](CCCCN)NC(=O)CN)C(=O)N[C@@H](CC(C)C)C(=O)N[C@@H](CCCCN)C(N)=O [GKAMSLLKHILK] | 
 |  | 2.7 (≈ 3.81 µg/mL) | 20 (≈ 28.2 µg/mL) | 100 (≈ 141 µg/mL) | 130 (≈ 183 µg/mL) | CC[C@H](C)[C@H](NC(=O)[C@H](Cc1cnc[nH]1)NC(=O)[C@H](CCCCN)NC(=O)[C@H](CC(C)C)NC(=O)[C@H](C)NC(=O)[C@H](CO)NC(=O)[C@H](CCSC)NC(=O)[C@H](Cc1c[nH]c2ccccc12)NC(=O)[C@H](CCCCN)NC(=O)CN)C(=O)N[C@@H](CC(C)C)C(=O)N[C@@H](CCCCN)C(N)=O [GKWMSALKHILK] | 
 |  | 1.8 (≈ 2.6 µg/mL) | 2.5 (≈ 3.61 µg/mL) | 50 (≈ 72.2 µg/mL) | 10.8 (≈ 15.6 µg/mL) | CC[C@H](C)[C@H](NC(=O)[C@H](CCC(N)=O)NC(=O)[C@H](CCCCN)NC(=O)[C@H](CC(C)C)NC(=O)[C@H](CC(C)C)NC(=O)[C@H](CO)NC(=O)[C@H](CCSC)NC(=O)[C@H](Cc1c[nH]c2ccccc12)NC(=O)[C@H](CCCCN)NC(=O)CN)C(=O)N[C@@H](CC(C)C)C(=O)N[C@@H](CCCCN)C(N)=O [GKWMSLLKQILK] | 
> 512 | > 512 |  |  |  |  | CC(C)C[C@H](NC(=O)[C@H](CC(C)C)NC(=O)[C@@H](NC(=O)[C@H](CCCCN)NC(=O)[C@H](C)NC(=O)[C@H](CCCN=C(N)N)NC(=O)[C@H](CCCCN)NC(=O)[C@H](C)NC(=O)[C@H](CC(C)C)NC(=O)CN)[C@@H](C)O)C(N)=O [GLAKRAKTLL] | MIC [10]: > 512 µM; MIC [12]: ≥ 512 µM; MIC [16]: > 512 µM; MIC [3]: > 512 µM; MIC [8]: > 512 µM; MIC [17]: > 512 µM
 |  | 0.7 (≈ 1.24 µg/mL) | 1.4 (≈ 2.47 µg/mL) | 23.1 (≈ 40.8 µg/mL) | 9 (≈ 15.9 µg/mL) | CC[C@H](C)[C@H](NC(=O)[C@H](CCCCN)NC(=O)[C@H](CCCCN)NC(=O)[C@H](Cc1c[nH]c2ccccc12)NC(=O)[C@@H](NC(=O)[C@@H](N)CC(N)=O)C(C)C)C(=O)N[C@@H](CC(C)C)C(=O)NCC(=O)N[C@@H](CCCCN)C(=O)N[C@H](C(=O)N[C@H](C(=O)N[C@@H](CCCCN)C(=O)N[C@H](C(=O)N[C@H](C(=O)N[C@@H](CCCCN)C(N)=O)C(C)C)C(C)C)[C@@H](C)CC)[C@@H](C)CC [NVWKKILGKIIKVVK] | 
 |  | 0.9 (≈ 1.59 µg/mL) | 5 (≈ 8.82 µg/mL) | 100 (≈ 176 µg/mL) | > 100 | CC[C@H](C)[C@H](NC(=O)[C@H](CCCCN)NC(=O)[C@@H]1CCCN1C(=O)[C@H](CC(C)C)NC(=O)[C@@H](NC(=O)[C@H](CCCCN)NC(=O)[C@H](CCCCN)NC(=O)[C@H](Cc1c[nH]c2ccccc12)NC(=O)[C@H](CC(N)=O)NC(=O)[C@@H](N)C(C)C)C(C)C)C(=O)N[C@H](C(=O)N[C@@H](CCCCN)C(=O)N[C@H](C(=O)N[C@@H](C)C(=O)N[C@@H](CCCCN)C(N)=O)C(C)C)[C@@H](C)CC [VNWKKVLPKIIKVAK] | 

From DBAASP
